These molecules were tested against S. aureus GyrB ATPase (Staphylococcus aureus, UniProt P0A0K8) (assay: S. aureus GyrB ATPase inhibition (ammonium molybdate/malachite green phosphate detection)). Details: compound concentration of 1 μM (unless otherwise noted).
S. aureus GyrB ATPase, sequence (P0AES4 whole entry): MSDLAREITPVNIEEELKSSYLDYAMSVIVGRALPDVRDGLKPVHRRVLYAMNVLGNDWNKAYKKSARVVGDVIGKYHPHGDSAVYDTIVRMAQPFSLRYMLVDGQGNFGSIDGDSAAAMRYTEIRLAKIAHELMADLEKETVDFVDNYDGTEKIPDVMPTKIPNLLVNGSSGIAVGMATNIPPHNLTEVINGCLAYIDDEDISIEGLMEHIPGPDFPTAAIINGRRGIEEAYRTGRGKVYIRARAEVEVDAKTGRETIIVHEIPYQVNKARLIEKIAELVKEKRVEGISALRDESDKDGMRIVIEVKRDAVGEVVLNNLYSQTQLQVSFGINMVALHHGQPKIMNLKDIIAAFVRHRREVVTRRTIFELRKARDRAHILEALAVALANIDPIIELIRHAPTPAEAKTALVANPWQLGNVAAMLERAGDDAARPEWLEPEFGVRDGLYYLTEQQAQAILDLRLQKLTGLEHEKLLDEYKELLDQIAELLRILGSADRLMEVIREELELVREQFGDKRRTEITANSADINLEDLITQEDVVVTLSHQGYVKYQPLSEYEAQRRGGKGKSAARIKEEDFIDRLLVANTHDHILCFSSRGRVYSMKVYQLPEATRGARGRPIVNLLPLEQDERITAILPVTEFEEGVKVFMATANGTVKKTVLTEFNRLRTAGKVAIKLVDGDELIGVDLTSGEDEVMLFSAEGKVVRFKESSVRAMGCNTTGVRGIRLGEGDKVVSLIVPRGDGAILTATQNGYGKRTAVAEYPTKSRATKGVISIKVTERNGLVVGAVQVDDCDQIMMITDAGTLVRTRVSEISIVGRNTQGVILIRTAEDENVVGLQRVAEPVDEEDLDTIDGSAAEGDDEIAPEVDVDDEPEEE
S. aureus GyrB ATPase, sequence (P0A0K8 whole entry): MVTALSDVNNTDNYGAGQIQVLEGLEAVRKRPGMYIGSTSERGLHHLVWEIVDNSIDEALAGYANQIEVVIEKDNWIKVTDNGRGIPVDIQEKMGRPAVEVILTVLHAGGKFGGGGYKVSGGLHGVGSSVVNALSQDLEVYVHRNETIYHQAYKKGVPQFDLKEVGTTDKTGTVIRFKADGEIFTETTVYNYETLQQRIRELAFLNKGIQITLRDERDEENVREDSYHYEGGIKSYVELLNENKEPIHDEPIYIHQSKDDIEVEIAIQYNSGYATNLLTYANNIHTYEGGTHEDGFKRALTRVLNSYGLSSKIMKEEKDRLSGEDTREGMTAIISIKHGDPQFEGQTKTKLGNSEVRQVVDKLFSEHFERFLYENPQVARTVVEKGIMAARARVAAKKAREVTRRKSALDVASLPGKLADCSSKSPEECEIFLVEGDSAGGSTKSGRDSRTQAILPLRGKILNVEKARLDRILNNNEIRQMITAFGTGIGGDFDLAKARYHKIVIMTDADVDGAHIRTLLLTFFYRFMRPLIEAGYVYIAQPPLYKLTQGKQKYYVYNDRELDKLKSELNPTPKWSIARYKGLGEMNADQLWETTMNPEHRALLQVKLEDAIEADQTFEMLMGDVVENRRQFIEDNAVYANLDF
Type: biochemical
Experimental: E. coli GyrB ATPase Inhibition Activity: Compounds can be tested for inhibition of E. coli GyrB ATPase activity using an ammonium molybdate/malachite green-based phosphate detection assay (Lanzetta, P. A., L. J. Alvarez, P. S. Reinach, and O. A. Candia, 1979, 100: 95-97). Assays can be performed in multiwell plates in 30 μl reactions containing: 50 mM Hepes buffer pH 7.5, 75 mM ammonium acetate, 8.0 mM magnesium chloride, 0.5 mM ethylenediaminetetraacetic acid, 5% glycerol, 1 mM 1,4-Dithio-DL-threitol, 200 nM bovine serum albumin, 1.6 μg/ml sheared salmon sperm DNA, 400 pM E. coli GyrA, 400 pM E. coli GyrB, 250 μM ATP, and compound in dimethylsulfoxide. Reactions can be quenched with 30 μl of ammonium molybdate/malachite green detection reagent containing 1.2 mM malachite green hydrochloride, 8.5 mM ammonium molybdate tetrahydrate, and 1 M hydrochloric acid. Plates can be read in an absorbance plate reader at 650 nm and percent inhibition values are calculated using dimethylsulfoxide (2%)-containing reactions as 0% inhibition and EDTA-containing (2.4 μM) reactions as 100% inhibition controls. An IC50 measurement of compound potency for each compound can be determined from reactions performed in the presence of 10 different compound concentrations. E. coli Topoisomerase IV ATPase Inhibition Activity: Compounds can be tested for inhibition of E. coli topoisomerase IV ATPase activity as described above for E. coli GyrB except the 30 μl reactions contained the following: 20 mM TRIS buffer pH 8, 50 mM ammonium acetate, 8 mM magnesium chloride, 5% glycerol, 5 mM 1,4-Dithio-DL-threitol, 0.005% Brij-35, 5 μg/ml sheared salmon sperm DNA, 500 pM E. coli ParC, 500 pM E. coli ParE, 160 μM ATP, and compound in dimethylsulfoxide. An IC50 measurement of compound potency for each compound can be determined from reactions performed in the presence of 10 different compound concentrations. S. aureus GyrB ATPase Inhibition Activity: Compounds may be tested for inhibition of S. aureus GyrB ATPase activity using an ammonium molybdate/malachite green-based phosphate detection assay (Lanzetta, P. A., L. J. Alvarez, P. S. Reinach, and O. A. Candia, 1979, 100: 95-97). Assays can be performed in multiwell plates in 30 μl reactions containing: 50 mM Hepes buffer pH 7.5, 75 mM ammonium acetate, 8.0 mM magnesium chloride, 0.5 mM ethylenediaminetetraacetic acid, 5% glycerol, 1.0 mM 1,4-Dithio-DL-threitol, 200 nM bovine serum albumin, 1.0 μg/ml sheared salmon sperm DNA, 250 pM E. coli GyrA, 250 pM S. aureus GyrB, 250 μM ATP, and compound in dimethylsulfoxide. Reactions can be quenched with 30 μl of ammonium molybdate/malachite green detection reagent containing 1.2 mM malachite green hydrochloride, 8.5 mM ammonium molybdate tetrahydrate, and 1 M hydrochloric acid. Plates can be read in an absorbance plate reader at 650 nm and percent inhibition values can be calculated using dimethylsulfoxide (2%)-containing reactions as 0% inhibition and EDTA-containing (2.4 μM) reactions as 100% inhibition controls. An IC50 measurement of compound potency for each compound can be determined from reactions performed in the presence of 10 different compound concentrations.
Compounds of the invention were tested in an assay substantially similar to the assay described above for measuring the inhibition of S. aureus GyrB ATPase. Percent inhibition of S. aureus GyrB ATPase at a compound concentration of 1 μM (unless otherwise noted) is disclosed in the following table: […]
Work on CO[C@H]1CN(c2nc(-c3cnc(NCCN4CCNC4=O)cn3)c(C(=O)O)s2)CC[C@H]1NC(=O)c1[nH]c(C)c(Cl)c1Cl [Example 131] yielded an inhibition at 1 µM of 108%.
With CCO[C@H]1CN(c2nc(-c3cnc(N4CCN(CC(C)C)CC4)cn3)c(C(=O)O)s2)CC[C@H]1NC(=O)c1[nH]c(C)c(Cl)c1Cl [Example 96] the inhibition at 1 µM was 104%.
Work on CO[C@H]1CN(c2nc(-c3cnc(N4CCN(CCO)CC4)cn3)c(C(=O)O)s2)CC[C@H]1NC(=O)c1[nH]c(C)c(Cl)c1Cl [Example 141] yielded an inhibition at 1 µM of 103%.
For CCO[C@H]1CN(c2nc(-c3cnc(NC(COC)COC)cn3)c(C(=O)O)s2)CC[C@H]1NC(=O)c1[nH]c(C)c(Cl)c1Cl [Example 92], the inhibition at 1 µM was 102%.
Work on Cc1[nH]c(C(=O)N[C@@H]2CCN(c3nc(-c4cnc(N5CCN[C@H](C)C5)cn4)c(C(=O)O)s3)C[C@@H]2C)c(Cl)c1Cl [Example 181, 2-[(3S,4R)-4-{[(3,4-dichloro-5-methyl-1H-pyrrol-2-yl)carbonyl]amino}-3-methylpiperidin-1-yl]-4-{5-[(3R)-3-methylpiperazin-1-yl]pyrazin-2-yl}-1,3-thiazole-5-carboxylic acid] yielded an inhibition at 1 µM of 101%.
CO[C@H]1CN(c2nc(-c3cnc(OCCN4CCCC4)cn3)c(C(=O)O)s2)CC[C@H]1NC(=O)c1[nH]c(C)c(Cl)c1Cl [Example 62, 2-[(3S,4R)-4-{[(3,4-dichloro-5-methyl-1H-pyrrol-2-yl)carbonyl]amino}-3-methoxypiperidin-1-yl]-4-{5-[2-(pyrrolidin-1-yl)ethoxy]pyrazin-2-yl}-1,3-thiazole-5-carboxylic acid] showed an inhibition at 1 µM of 98%.
CO[C@H]1CN(c2nc(-c3cnc(NCCN4CCOCC4)cn3)c(C(=O)O)s2)CC[C@H]1NC(=O)c1[nH]c(C)c(Cl)c1Cl [Example 130] was tested, and the inhibition at 1 µM was 107%.
CCO[C@H]1CN(c2nc(-c3ncnn3C)c(C(=O)O)s2)CC[C@H]1NC(=O)c1[nH]c(C)c(Cl)c1Cl [Example 8] gave an inhibition at 1 µM of 100%.
In the case of CCO[C@H]1CN(c2nc(-c3cnc(N4CCOCC4)cn3)c(C(=O)O)s2)CC[C@H]1NC(=O)c1[nH]c(C)c(Cl)c1Cl [Example 87], the inhibition at 1 µM is reported as 109%.
Work on CCCO[C@H]1CN(c2nc(-c3ncccc3F)c(C(=O)O)s2)CC[C@H]1NC(=O)c1[nH]c(C)c(Cl)c1C#N [Example 210, 2-[(3S,4R)-4-{[(4-chloro-3-cyano-5-methyl-1H-pyrrol-2-yl)carbonyl]amino}-3-propoxypiperidin-1-yl]-4-(3-fluoropyridin-2-yl)-1,3-thiazole-5-carboxylic acid] yielded an inhibition at 1 µM of 109%.
In the case of CO[C@H]1CN(c2nc(-c3cnc(NCCN4CCN(C)CC4)cn3)c(C(=O)O)s2)CC[C@H]1NC(=O)c1[nH]c(C)c(Cl)c1Cl [Example 133], the inhibition at 1 µM is reported as 112%.
In the case of CCCO[C@H]1CN(c2nc(-c3ncnn3C)c(C(=O)O)s2)CC[C@H]1NC(=O)c1[nH]c(C)c(Cl)c1C#N [Example 208, 2-[(3S,4R)-4-{[(4-chloro-3-cyano-5-methyl-1H-pyrrol-2-yl)carbonyl]amino}-3-propoxypiperidin-1-yl]-4-(1-methyl-1H-1,2,4-triazol-5-yl)-1,3-thiazole-5-carboxylic acid], the inhibition at 1 µM is reported as 108%.
With COCC(COC)Nc1cnc(-c2nc(N3CC[C@@H](NC(=O)c4[nH]c(C)c(Cl)c4Cl)[C@@H](C)C3)sc2C(=O)O)cn1 [Example 172, 2-[(3S,4R)-4-{[(3,4-dichloro-5-methyl-1H-pyrrol-2-yl)carbonyl]amino}-3-methylpiperidin-1-yl]-4-{5-[(1,3-dimethoxypropan-2-yl)amino]pyrazin-2-yl}-1,3-thiazole-5-carboxylic acid] the inhibition at 1 µM was 109%.
Cc1[nH]c(C(=O)N[C@@H]2CCN(c3nc(-c4cnccn4)c(C(=O)O)s3)C[C@@H]2C)c(Cl)c1Cl [Example 25] gave an inhibition at 1 µM of 119%.
Molecule CCC(CC)N1CCN(c2cnc(-c3nc(N4CC[C@@H](NC(=O)c5[nH]c(C)c(Cl)c5Cl)[C@@H](OC)C4)sc3C(=O)O)cn2)CC1 [Example 137] has an inhibition at 1 µM of 101%.
Work on CCO[C@H]1CN(c2nc(-c3cnc(NCCN4CCNC4=O)cn3)c(C(=O)O)s2)CC[C@H]1NC(=O)c1[nH]c(C)c(Cl)c1Cl [Example 93] yielded an inhibition at 1 µM of 94%.
Work on CCO[C@H]1CN(c2nc(-c3nccn3CCOC)c(C(=O)O)s2)CC[C@H]1NC(=O)c1[nH]c(C)c(Cl)c1Cl [Example 9] yielded an inhibition at 1 µM of 98%.
For CO[C@H]1CN(c2nc(-c3cnc(N4CCN[C@H](C)C4)cn3)c(C(=O)O)s2)CC[C@H]1NC(=O)c1[nH]c(C)c(Cl)c1Cl [Example 140], the inhibition at 1 µM was 107%.
CCO[C@H]1CN(c2nc(-c3ncccc3F)c(C(=O)O)s2)CC[C@H]1NC(=O)c1[nH]c(C)c(Cl)c1C#N [Example 14] gave an inhibition at 1 µM of 91%.
Molecule Cc1[nH]c(C(=O)N[C@@H]2CCN(c3nc(-c4cnc(N5CCCCC5)cn4)c(C(=O)O)s3)C[C@@H]2C)c(Cl)c1Cl [Example 165, 2-[(3S,4R)-4-{[(3,4-dichloro-5-methyl-1H-pyrrol-2-yl)carbonyl]amino}-3-methylpiperidin-1-yl]-4-[5-(piperidin-1-yl)pyrazin-2-yl]-1,3-thiazole-5-carboxylic acid] has an inhibition at 1 µM of 107%.
CCO[C@H]1CN(c2nc(-c3cnc(N4CCN(CCO)CC4)cn3)c(C(=O)O)s2)CC[C@H]1NC(=O)c1[nH]c(C)c(Cl)c1Cl [Example 103] showed an inhibition at 1 µM of 102%.
CCO[C@H]1CN(c2nc(-c3cnc(N4CCN(CC5CCCO5)CC4)cn3)c(C(=O)O)s2)CC[C@H]1NC(=O)c1[nH]c(C)c(Cl)c1Cl (some centres unmarked) [Example 104] showed an inhibition at 1 µM of 105%.
With Cc1[nH]c(C(=O)N[C@@H]2CCN(c3nc(-c4cnc(N5CCN(CCO)CC5)cn4)c(C(=O)O)s3)C[C@@H]2C)c(Cl)c1Cl [Example 182, 2-[(3S,4R)-4-{[(3,4-dichloro-5-methyl-1H-pyrrol-2-yl)carbonyl]amino}-3-methylpiperidin-1-yl]-4-{5-[4-(2-hydroxyethyl)piperazin-1-yl]pyrazin-2-yl}-1,3-thiazole-5-carboxylic acid] the inhibition at 1 µM was 117%.
Molecule Cc1[nH]c(C(=O)N[C@@H]2CCN(c3nc(-c4ncccc4F)c(C(=O)O)s3)C[C@@H]2C)c(C#N)c1Cl [Example 28] has an inhibition at 1 µM of 98%.
For CCCO[C@H]1CN(c2nc(-c3cnccn3)c(C(=O)O)s2)CC[C@H]1NC(=O)c1[nH]c(C)c(Cl)c1C#N [Example 211, 2-[(3S,4R)-4-{[(4-chloro-3-cyano-5-methyl-1H-pyrrol-2-yl)carbonyl]amino}-3-propoxypiperidin-1-yl]-4-(pyrazin-2-yl)-1,3-thiazole-5-carboxylic acid], the inhibition at 1 µM was 107%.
CO[C@H]1CN(c2nc(-c3nccc(N4CCOCC4)n3)c(C(=O)O)s2)CC[C@H]1NC(=O)c1[nH]c(C)c(Cl)c1Cl [Example 190, 2-[(3S,4R)-4-{[(3,4-dichloro-5-methyl-1H-pyrrol-2-yl)carbonyl]amino}-3-methoxypiperidin-1-yl]-4-[4-(morpholin-4-yl)pyrimidin-2-yl]-1,3-thiazole-5-carboxylic acid] showed an inhibition at 1 µM of 100%.
COCCNc1cnc(-c2nc(N3CC[C@@H](NC(=O)c4[nH]c(C)c(Cl)c4Cl)[C@@H](C)C3)sc2C(=O)O)cn1 [Example 170, 2-[(3S,4R)-4-{[(3,4-dichloro-5-methyl-1H-pyrrol-2-yl)carbonyl]amino}-3-methylpiperidin-1-yl]-4-{5-[(2-methoxyethyl)amino]pyrazin-2-yl}-1,3-thiazole-5-carboxylic acid] showed an inhibition at 1 µM of 119%.
For CCO[C@H]1CN(c2nc(-c3cnc(NCCN(C)C)cn3)c(C(=O)O)s2)CC[C@H]1NC(=O)c1[nH]c(C)c(Cl)c1Cl [Example 94], the inhibition at 1 µM was 104%.
For CCO[C@H]1CN(c2nc(-c3ncnn3C)c(C(=O)O)s2)CC[C@H]1NC(=O)c1[nH]c(C)c(Cl)c1C#N [Example 12], the inhibition at 1 µM was 106%.
